# Laboratory results reported in patent US8470851B2, “Substituted acetylenic imidazo[1,2-A]pyridine compounds as kinase inhibitors” (ARIAD Pharmaceuticals, Inc., priority 2005, dated 2013).
# Molecular target: T1, BaF3 cells transfected with the Bcr-Abl T315I mutant (Homo sapiens, UniProt P00519, T315I, cells depend on it)
# T1 construct: fused on or other part: P11274 (Breakpoint cluster region protein)
# Test: Ba/F3 cell proliferation assay, Bcr-Abl T315I (CellTiter 96 AQueous One);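 note: murine pro-B Ba/F3 line, tetrazolium turned into formazan and read by absorbance, compound dilution series, values as percent of DMSO-treated control, IC50 from fitted curves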
# Format: cell-based, murine
# Conditions: Ba/F3 cells expressing Bcr-Abl T315I, 3 days incubation; read-out: T315l cell proliferation
row,GI50 [nM],SMILES
1,< 1000,Cc1ccc(C(=O)Nc2ccc(CN3CCNCC3)c(C(F)(F)F)c2)cc1C#Cc1cnc2cnccn12
2,< 1000,Cc1ccc(C(=O)Nc2cc(C(F)(F)F)ccn2)cc1C#Cc1cnc2c(NC(N)=O)cccn12
3,< 1000,CN1CCN(Cc2ccc(NC(=O)c3ccc(F)c(C#Cc4cnc5cnccn45)c3)cc2C(F)(F)F)CC1
4,< 1000,CCN1CCN(Cc2ccc(NC(=O)c3ccc(C)c(C#Cc4cnc5cnccn45)c3)cc2C(F)(F)F)CC1
5,< 1000,Cc1ccc(C(=O)Nc2ccc(CN3CCN(C)CC3)c(C(F)(F)F)c2)cc1C#Cc1cnn2c(N)ncnc12
6,< 1000,Cc1ccc(C(=O)Nc2ccc(CN3CCN(C(C)C)CC3)c(C(F)(F)F)c2)cc1C#Cc1cnc2cnccn12
7,< 1000,CNC(=O)Nc1cccn2c(C#Cc3cc(C(=O)Nc4cc(C(F)(F)F)ccn4)ccc3C)cnc12
8,< 1000,Cc1ccc(C(=O)Nc2cc(C(C)(C)C)on2)cc1C#Cc1cnc2c(NC(N)=O)cccn12
9,< 1000,Cc1ccc(C(=O)Nc2cc(-n3ccnc3)cc(C(F)(F)F)c2)cc1C#Cc1cnc2c(NC(N)=O)cccn12
10,< 1000,CN1CCN(Cc2ccc(NC(=O)c3ccc(Cl)c(C#Cc4cnc5ccccn45)c3)cc2C(F)(F)F)CC1
11,< 1000,Cc1ccc(C(=O)Nc2cc(C(F)(F)F)ccn2)cc1C#Cc1cnc2c(NC(=O)N(C)C)cccn12
12,< 1000,Cc1ccc(C(=O)Nc2cc(C(F)(F)F)ccn2)cc1C#Cc1cnc2c(NC(=O)C3CC3)cccn12
13,< 1000,CN1CCN(Cc2ccc(NC(=O)c3ccc(F)c(C#Cc4cnc5ccccn45)c3)cc2C(F)(F)F)CC1
14,< 1000,COC(=O)Nc1cccn2c(C#Cc3cc(C(=O)Nc4cc(C(F)(F)F)ccn4)ccc3C)cnc12
15,< 1000,Cc1ccc(C(=O)Nc2cc(-n3ccnc3)cc(C(F)(F)F)c2)cc1C#Cc1cnc2c(NC(=O)OC(C)(C)C)cccn12
16,< 1000,Cc1ccc(C(=O)Nc2ccc(OC3CCN(C)CC3)c(C(F)(F)F)c2)cc1C#Cc1cnc2cnccn12
17,< 1000,CN1CCN(Cc2ccc(NC(=O)c3cccc(C#Cc4cnc5ccccn45)c3)cc2C(F)(F)F)CC1
18,< 1000,Cc1ccc(C(=O)Nc2cc(Cn3ccnc3)cc(C(F)(F)F)c2)cc1C#Cc1cnc2ccccn12
19,< 1000,Cc1ccc(C(=O)Nc2cc(-n3ccnc3)cc(C(F)(F)F)c2)cc1C#Cc1cnn2cccnc12
20,< 1000,Cc1ccc(C(=O)Nc2cc(Cn3ccnc3)cc(C(F)(F)F)c2)cc1C#Cc1cnc2cnccn12
21,< 1000,CC(=O)Nc1cccn2c(C#Cc3cc(C(=O)Nc4cc(C(F)(F)F)ccn4)ccc3C)cnc12

row,GI50 [nM],SMILES
1,< 1000,Cc1ccc(C(=O)Nc2cc(C(F)(F)F)ccn2)cc1C#Cc1cnc2c(Nc3ccc(S(N)(=O)=O)cc3)cccn12
2,< 1000,CN1CCN(Cc2ccc(NC(=O)c3cccc(C#Cc4cnc5cnccn45)c3)cc2C(F)(F)F)CC1
3,< 1000,Cc1ccc(C(=O)Nc2cc(-n3cnc(C#N)c3)cc(C(F)(F)F)c2)cc1C#Cc1cnc2cnccn12
4,< 1000,Cc1ccc(C(=O)Nc2cc(-n3ccnc3)cc(C(F)(F)F)c2)cc1C#Cc1cnc2c(Nc3cccc(C(N)=O)c3)cccn12
5,< 1000,Cc1ccc(C(=O)Nc2cc(C(F)(F)F)ccn2)cc1C#Cc1cnc2c(Nc3ccc(S(C)(=O)=O)cc3)cccn12
6,< 1000,Cc1ccc(C(=O)Nc2cc(-n3cnc(CCN4CCCC4)c3)cc(C(F)(F)F)c2)cc1C#Cc1cnc2ccccn12
7,< 1000,CC(C)N1CCN(Cc2ccc(NC(=O)c3cncc(C#Cc4cnc5cnccn45)c3)cc2C(F)(F)F)CC1
8,< 1000,Cc1ccc(C(=O)Nc2cc(-n3ccnc3CN(C)C)cc(C(F)(F)F)c2)cc1C#Cc1cnc2cnccn12
9,< 1000,Cc1ccc(C(=O)Nc2ccc(CN3CCC(N(C)C)CC3)c(C(F)(F)F)c2)cc1C#Cc1cnc2cnccn12
10,< 1000,Cc1ccc(C(=O)Nc2cc(-n3ccnc3)cc(C(F)(F)F)c2)cc1C#Cc1cnc2cnccn12
11,< 1000,CC(C)N1CCN(Cc2ccc(NC(=O)c3cccc(C#Cc4cnc5cnccn45)c3)cc2C(F)(F)F)CC1
12,< 1000,Cc1ccc(C(=O)Nc2cc(CN3CCCC3)cc(C(F)(F)F)c2)cc1C#Cc1cnc2cnccn12
13,< 1000,Cc1cn(-c2cc(NC(=O)c3ccc(C)c(C#Cc4cnc5ccccn45)c3)cc(C(F)(F)F)c2)cn1
14,< 1000,Cc1ccc(C(=O)Nc2ccc(CN3CCN(C)CC3)c(C(F)(F)F)c2)cc1C#Cc1cnn2cccnc12
15,< 1000,CN1CCN(Cc2ccc(NC(=O)c3ccc(C#Cc4cnc5ccccn45)o3)cc2C(F)(F)F)CC1
16,< 1000,Cc1ccc(C(=O)Nc2ccc(CN3CCNC(=O)C3)c(C(F)(F)F)c2)cc1C#Cc1cnc2ccccn12
17,< 1000,Cc1ccc(C(=O)Nc2cc(-n3cnc(C#N)c3)cc(C(F)(F)F)c2)cc1C#Cc1cnc2ccccn12
18,< 1000,Cc1ccc(C(=O)Nc2cc(-n3cnc(CN4CCCC4)c3)cc(C(F)(F)F)c2)cc1C#Cc1cnc2cnccn12
19,< 1000,Cc1ccc(C(=O)Nc2ccc(CN3CCC(N(C)C)CC3)c(C(F)(F)F)c2)cc1C#Cc1cnc2ccccn12
20,< 1000,CN1CCN(Cc2ccc(C(=O)Nc3cccc(C#Cc4cnc5cnccn45)c3)cc2C(F)(F)F)CC1
21,< 1000,Cc1ccc(C(=O)Nc2cc(C(C)(C)C)on2)cc1C#Cn1cnc2c(NC3CC3)ncnc21

row,GI50 [nM],SMILES
1,< 1000,Cc1ccc(C(=O)Nc2cc(C(F)(F)F)ccn2)cc1C#Cc1cnn2cccnc12
2,< 1000,Cc1ccc(C(=O)Nc2ccc(CN3CCOCC3)c(C(F)(F)F)c2)cc1C#Cc1cnc2cnccn12
3,< 1000,Cc1ccc(C(=O)Nc2cc(C(F)(F)F)ccn2)cc1C#Cc1cnc2c(N)cccn12
4,< 1000,Cc1ccc(C(=O)Nc2cc(CN3CCCC3)cc(C(F)(F)F)c2)cc1C#Cc1cnc2ccccn12
5,< 1000,Cc1ccc(C(=O)Nc2cc(CN3CCOCC3)cc(C(F)(F)F)c2)cc1C#Cc1cnc2cnccn12
6,< 1000,Cc1ccc(C(=O)Nc2ccc(CN3CCCC3)c(C(F)(F)F)c2)cc1C#Cc1cnc2cnccn12
7,< 1000,Cc1ccc(C(=O)Nc2ccc(Cn3ccnc3)c(C(F)(F)F)c2)cc1C#Cc1cnc2cnccn12
8,< 1000,Cc1ccc(C(=O)Nc2cc(C(F)(F)F)ccn2)cc1C#Cc1cnn2c(N)ncnc12
9,< 1000,Cc1ccc(C(=O)Nc2ccc(Cn3ccnc3)c(C(F)(F)F)c2)cc1C#Cc1cnc2ccccn12
10,< 1000,Cc1ccc(C(=O)Nc2cc(CN3CCOCC3)cc(C(F)(F)F)c2)cc1C#Cc1cnc2ccccn12
11,< 1000,CC(=O)Nc1cccn2c(C#Cc3cc(C(=O)Nc4cccc(C(F)(F)F)c4)ccc3C)cnc12
12,< 1000,Cc1ccc(C(=O)Nc2cc(-n3cnc(CCN4CCCC4)c3)cc(C(F)(F)F)c2)cc1C#Cc1cnc2cnccn12
13,< 1000,CC(=O)Nc1ncnc2c(C#Cc3cc(C(=O)Nc4cc(C(F)(F)F)ccn4)ccc3C)cnn12
14,< 1000,Cc1ccc(C(=O)Nc2cc(C(F)(F)F)ccn2)cc1C#Cc1cnc2c(NC(=O)C3CCC3)cccn12
15,< 1000,CC(C)(C)c1cc(NC(=O)c2cccc(C#Cc3cnc4ccccn34)c2)no1
16,< 1000,Cc1ccc(C(=O)Nc2ccc(CN3CC[C@@H](N(C)C)C3)c(C(F)(F)F)c2)cc1C#Cc1cnc2cccnn12 (racemic)
17,< 1000,Cc1ccc(C(=O)Nc2ccc(CN3CC[C@@H](O)C3)c(C(F)(F)F)c2)cc1C#Cc1cnc2ccccn12 (racemic)
18,< 1000,Cc1ccc(C(=O)Nc2ccc(CN3CC[C@@H](N(C)C)C3)c(C(F)(F)F)c2)cc1C#Cc1cnc2cnccn12 (stereo in doubt)
19,< 1000,Cc1ccc(C(=O)Nc2ccc(CN3CC[C@H](N(C)C)C3)c(C(F)(F)F)c2)cc1C#Cc1cnc2cnccn12 (stereo in doubt)
